This passage reports MIC99 results from patent publication US20250388554A1, “ANTIBACTERIAL COMPOUNDS, METHOD OF PRODUCTION AND USE THEREOF” (priority 2024, published 2025).

Structures are written as SMILES. In brackets after ≈: the same amount, converted by molar mass.

Test [1] concerns drug resistant clinical isolate S7 (Resistant to INH). Put plainly: Resazurin assay (REMA) / alamarBlue MIC. The format is cell-based. To be noted: Mycobacterium tuberculosis, read-out: MIC99 (S7). (Resazurin is reduced to fluorescent resorufin, in cell work by metabolically active cells.)
In test [2] the test system is drug resistant clinical isolate S6 (Resistant to INH+Rifampicin). As to the kind of experiment: microbe, parasite or virus in culture. The format is cell-based. The note with it: Mycobacterium tuberculosis, read-out: MIC99 (S6).

Take `CC(N)c1ncnn1C` (stereo not shown) [SF1, 1-(2-methyl-1,2,4-triazol-3-yl)ethanamine]: in test [1], the MIC99 was 250 µM (≈ 31.5 µg/mL).

With `CC(C)C(N)c1ncnn1C` (stereo not shown) [SF2, 2-methyl-1-(2-methyl-1,2,4-triazol-3-yl)propan-1-amine], the MIC99 in test [2] and in test [1] was 125 µM (≈ 19.3 µg/mL) each time.

Take `NCCSc1ncn[nH]1` [SF3, 2-(1H-1,2,4-triazol-5-ylsulfanyl)ethanamine]: the MIC99 in test [1] came to 250 µM (≈ 36.1 µg/mL).
